The test system of series [1] is MDA-MB-435 breast carcinoma. Description: Anchorage Dependent Growth Monolayer Assay (ADGMA), MTS readout. The conditions noted are these: Homo sapiens, MDA-MB-435, 72 h, average ± S.D., 3-day exposure, A490. The class given is cell-based. From the text: As indicated above, all of the compounds of formula I, and their corresponding pharmaceutically acceptable acid addition salts, are anti-tumor agents and are, therefore, useful in inhibiting the growth of various lymphomas, sarcomas, carcinomas, myelomas, and leukemia cell lines. […] This assay was adapted from the 60 cell line assay used by the National Cancer Institute (NCI) with the following modifications: 1) a single cell line representative for the important tumor type, viz., MDA-MB-435 breast carcinoma was utilized; 2) a tetrazolium derivative, viz., MTS, was utilized to determine cell density.
The ADGMA compares the number of viable cells following a 3-day exposure to a test compound relative to a number of cells present at the time the test compound was added. […] The absorbance at 490 nm (A490) of the formazan derivative is proportional to the number of viable cells. The IC50 for a test compound is the concentration of compound required to reduce the final cell number to 50% of the final control cell number. If cell proliferation is inhibited, the assay further defines compounds as cytostatic (cell number after 3-day compound incubation >cell number at time of compound addition) or cytotoxic (cell number after 3-day compound incubation <cell number at time of compound addition).
The MDA-MB-435 breast carcinoma line was obtained from the American Type Culture Collection (ATCC) and used between passages 4-20 following thawing. MDA-MB-435 breast carcinoma was maintained and plated in DME/F12 medium containing 10% fetal bovine serum, 15 mM HEPES (pH=7.4), penicillin 100 units/mL, and streptomycin 100 µg/mL.
Cell lines are trypsinized and counted using a Coulter counter to determine plating densities. Cells are then plated in their respective maintenance media (100 µL/well) in 96 well plates at the following densities: MDA-MB-435, 3,000 cells/well. The number of cells plates as determined in preliminary experiments, results in cell densities of 75-90% of confluency by 4 days after plating. Initial cell densities, assayed one day after plating, are roughly 0.15-0.20 absorbance units greater than the media blank. Ninety-six well plates are seeded on day 0 and the test compounds are added on day 1. A control plate is created for each cell line that receives media only in row A and cells in row B. One day following plating, test compounds are added (in a final volume of 100 µL) to the test plates. Control plates receive 10 µL MTS mixture (prepared fresh on day of addition to cell plates at a ratio of 10 µL of a 0.92 mg/mL solution of PMS to a 190 µL of a 2 mg/mL solution of MTS) and 100 µL media. A490 of control plates is read 4h after MTS addition to determine initial cell density values for each cell line. Three days after addition of test compound, 10 µL/well of MTS mixture is added to the test plates and A490 is read 4h later. A490 values for wells containing cells are corrected for media absorbance, then normalized to initial density readings to determine percent net growth. IC50 values are determined from graphs of percent net growth as a function of compound concentration. Percent net growth is calculated as (Cell + Drug A490 - Initial A490/Cell + Drug Vehicle A490 - Initial A490).

Series [2] relates to MDA-MB-435 tumor xenografts. As to the kind of experiment: Human tumor xenograft growth inhibition in athymic nude mouse model. The format is in vivo, athymic (nu/nu) mice. The conditions noted are these: for response vs control in vivo at 10 µmol/kg / response vs control in vivo at 33 µmol/kg / response vs control in vivo at 100 µmol/kg: Mus musculus, MDA-MB-435, iv, 504 h, read-out: %T/C. As to the method:
The histologic tumor type employed was MDA-MB-435 breast carcinoma.
Positive controls are carried out with doxorubicin administered 3 times per week i.v.
Anti-tumor activity was expressed as %T/C (Δ MTV of treated group ö Δ MTV of control group X100).
(In general: A xenograft is tissue or cells of one species grown in another, often human tumour cells in immunodeficient mice.)

A short description of a further series: physchem. The conditions noted are these: water.
Where [3] appears, read: 10 µmol/kg i.v., 3X/week for 3 weeks.
Where [4] appears, read: 33 µmol/kg i.v., 3X/week for 3 weeks.
[5] abbreviates: 100 µmol/kg i.v., 3X/week for 3 weeks.
[6] abbreviates: 10 µmol/kg i.v., 3X/week for 3 weeks, * = statistically significant (p=<0.05).
[7] abbreviates: 33 µmol/kg i.v., 3X/week for 3 weeks, * = statistically significant (p=<0.05).

Values after ≈ are worked out from the molar mass of the structure shown. Like-named read-outs stand apart in the source and are kept apart here.

Usually IC50 stands for the midpoint of a concentration-inhibition curve. Lower therefore signals greater potency in that assay. By solubility is commonly meant the concentration that dissolves in the medium under given conditions. A higher solubility goes with a readily soluble substance.

In series [1], `CO[C@@H](C(=O)N[C@H]1CC[C@@H](OC(=O)C2CCCCC2)CNC1=O)[C@H](O)[C@@H](O)[C@H](O)/C=C/C(C)(C)C` [Ex. 1, (2R, 3R, 4S, 5R, 6E)-3,4,5-trihydroxy-2-methoxy-8,8-dimethyl-N-[(3S, 6R)-hexahydro-2-oxo-6-(cyclohexylcarbonyl)oxy-2H-azepin-3-yl]non-6-enamide] showed an IC50 of 0.068 ± 0.04 µM. Also, in series [2] (setting [3]), the Dead/Total is recorded as 0/8 and the “Δ MTV” value was 107 mm^3. In addition, in series [2] (setting [4]), the Dead/Total was 0/8 and the “Δ MTV” value was 43 mm^3. Also, in series [2] (setting [5]), the Dead/Total is on record as 0/8 and the “Δ MTV” value is recorded as -11 mm^3. Further, in series [2], the response vs control in vivo at 10 µmol/kg worked out at 61%, the response vs control in vivo at 33 µmol/kg was found to be 24% and the response vs control in vivo at 100 µmol/kg was -6%. In addition, the solubility in the series “Water solubility” was determined as 3.7 mg/mL (≈ 7.42 mM).
Consider `CO[C@@H](C(=O)N[C@H]1CC[C@@H](OC(=O)C2CCCC2)CNC1=O)[C@H](O)[C@@H](O)[C@H](O)/C=C/C(C)(C)C` [Ex. 2, (2R, 3R, 4S, 5R, 6E)-3,4,5-trihydroxy-2-methoxy-8,8-dimethyl-N-[(3S, 6R)-hexahydro-2-oxo-6-(cyclopentylcarbonyl)oxy-2H-azepin-3-yl]non-6-enamide], for which, in series [1], it took 0.115 ± 0.04 µM to reach half-maximal inhibition (IC50). Moreover, in series [2] (setting [3]), the Dead/Total is 0/8 and the “Δ MTV” value amounted to 94 mm^3. Further, in series [2] (setting [4]), the Dead/Total is given as 0/8 and the “Δ MTV” value is 19 mm^3. Also, in series [2] (setting [6]), the response vs control in vivo at 10 µmol/kg stood at 67%. Besides, in series [2] (setting [7]), the response vs control in vivo at 33 µmol/kg stood at 13%. In “Water solubility”, this compound returned a solubility of 18 mg/mL (≈ 37.1 mM).
Regarding `CO[C@@H](C(=O)N[C@H]1CC[C@@H](OC(=O)CCc2ccccc2)CNC1=O)[C@H](O)[C@@H](O)[C@H](O)/C=C/C(C)(C)C` [Ex. 4, (2R, 3R, 4S, 5R, 6E)-3,4,5-trihydroxy-2-methoxy-8,8-dimethyl-N-[(3S, 6R)-hexahydro-2-oxo-6-(1-oxo-3-phenylpropoxy)-2H-azepin-3-yl]non-6-enamide], half-maximal inhibition in series [1] (IC50) was put at 0.01 ± 0.01 µM. Also, the Dead/Total in series [2] (setting [3]), in series [2] (setting [4]) and in series [2] (setting [5]) was 0/8 in each case. Besides, the entries for the “Δ MTV” value in series [2] (setting [3]), in series [2] (setting [4]) and in series [2] (setting [5]) were 93 mm^3, 21 mm^3 and -23 mm^3, respectively. For the same compound, the response vs control in vivo at 10 µmol/kg in series [2] (setting [6]) was determined as 53%. Further, the response vs control in vivo at 33 µmol/kg in series [2] (setting [7]) was found to be 12%. The response vs control in vivo at 100 µmol/kg in series [2] (100 µmol/kg i.v., 3X/week for 3 weeks, * = statistically significant (p=<0.05)) is -13%. The same compound gave a solubility in the series “physchem” of 0.8 mg/mL (≈ 1.54 mM).

The values above are taken from patent EP1131297B1, “CERTAIN SUBSTITUTED CAPROLACTAMS, PHARMACEUTICAL COMPOSITIONS CONTAINING THEM AND THEIR USE IN TREATING TUMORS” (Novartis AG, priority 1998, dated 2000).
